Consider 26 compounds from patent publication US12312419B2, “Hemiasterlin derivative having cysteine residue” (priority 2019, dated 2025).

This assay relates to Karpas-299 cells. In words: Cellular toxicity test (1), CellTiter-Glo cell viability. The settings on record: for IC50: Homo sapiens, 96 h, Karpas-299, cultured 4 days, cell viability. It is filed as cell-based, human. Here is the method:
Karpas-299 cells (European Collection of Authenticated Cell Cultures, hereinafter, ECACC), which are human lymphoma cell lines, were cultured in RPMI 1640 (GIBCO) containing 10% fetal bovine serum (MP Biomedicals) (hereinafter, referred to as the “culture medium”). Cells were prepared to be 2×10^5 cells/mL in the culture medium, and were added to a 96 well microplate for cell culturing in an amount of 50 μL for each well. Compounds of Examples or the Comparative Example compound 4 times diluted with the culture medium in 8 stages were added to the microplate in an amount of 50 μL for each well. These were cultured at 37° C. under 5% CO2 for 4 days. After culturing, the microplate was taken out from the incubator, and was left at rest at room temperature for 10 minutes. To each well, 50 μL of CellTiter-Glo Luminescent Cell Viability Assay (Promega) was added, and the resultant mixture was stirred. This mixture was incubated at a dark place for 20 minutes. Using a microplate luminometer, luminescence at each well was measured, thereby calculating the cell viability. From the value of the cell viability, the IC50 value was calculated.
The IC50 value was calculated by the following formula: IC50(nM)=antilog(LOG10(a/b)×(e−d)/(c−d)+LOG10b) • a: concentration a of test substance • b: concentration b of test substance • c: cell viability upon adding test substance with concentration a • d: cell viability upon adding test substance with concentration b • e: intermediate value between maximum and minimum among cell viabilities upon adding test substances with different concentrations (a and b are concentrations crossing the cell viability e, and a>b is indicated).
The cell viability at each concentration was calculated by the following formula: Cell Viability (%)=a′/b′×100 • a′: mean value of luminescence amount of wells to which test substance was added (n=6) • b′: mean value of luminescence amount of wells to which test substance was not added (n=6) • (n represents the number of evaluations performed per test substance concentration).

As for `CN[C@H](C(=O)N[C@H](C(=O)N(C)[C@H](/C=C(\C)C(=O)NCCCCNC(=O)CCCCCN1C(=O)CC(SC[C@H](N)C(=O)O)C1=O)C(C)C)C(C)(C)C)C(C)(C)c1cn(C)c2ccccc12` (some centres unmarked) [Comparative Example compound, reference compound], the “cellular toxicity to Karpas-299 cells” value (in words, summary of Table 17) is listed as “strong cellular toxicity”.
As for `CN[C@H](C(=O)N[C@H](C(=O)N(C)[C@H](/C=C(\C)C(=O)N[C@H](CCC(=O)N[C@@H](CCCCNC(=O)CCCCCN1C(=O)CC(SC[C@H](N)C(=O)O)C1=O)C(=O)O)C(=O)O)C(C)C)C(C)(C)C)C(C)(C)c1cn(C)c2ccccc12` (some centres unmarked) [Example MM2], the midpoint of inhibition, the IC50, lay at 459 nM.
Same read-out and setting: for `CN[C@H](C(=O)N[C@H](C(=O)N(C)[C@H](/C=C(\C)C(=O)N[C@H](CCC(=O)N[C@H](CCC(=O)NCCN1C(=O)CC(SC[C@H](N)C(=O)O)C1=O)C(=O)O)C(=O)O)C(C)C)C(C)(C)C)C(C)(C)c1cn(C)c2ccccc12` (some centres unmarked) [Example MM3] the value was 387 nM.
Same read-out and setting: for `CN[C@H](C(=O)N[C@H](C(=O)N(C)[C@H](/C=C(\C)C(=O)N[C@H](CCC(=O)NCCN1C(=O)CC(SC[C@H](N)C(=O)O)C1=O)C(=O)O)C(C)C)C(C)(C)C)C(C)(C)c1cn(C)c2ccccc12` (some centres unmarked) [Example MM4] the value was 289 nM.
The same measure, in the same setting: the result for `CN[C@H](C(=O)N[C@H](C(=O)N(C)[C@H](/C=C(\C)C(=O)NCCCC[C@@H](NC(=O)CCCN1C(=O)CC(SC[C@H](N)C(=O)O)C1=O)C(=O)O)C(C)C)C(C)(C)C)C(C)(C)c1cn(C)c2ccccc12` (some centres unmarked) [Example MM5] reads more than 1000 nM.
As for `CN[C@H](C(=O)N[C@H](C(=O)N(C)[C@H](/C=C(\C)C(=O)N[C@H](CCC(=O)N[C@H](CCC(=O)NCCN1C(=O)CC(SC[C@H](N)C(=O)O)C1=O)C(=O)O)C(=O)O)C(C)C)C(C)(C)C)C(C)(C)c1ccccc1` (some centres unmarked) [Example MM6], the IC50 is more than 1000 nM.
On the same count and under the same terms, the result for `CN[C@H](C(=O)N[C@H](C(=O)N(C)[C@H](/C=C(\C)C(=O)N[C@H](CCC(=O)N[C@H](CCC(=O)N[C@H](CCC(=O)NCCN1C(=O)CC(SC[C@H](N)C(=O)O)C1=O)C(=O)O)C(=O)O)C(=O)O)C(C)C)C(C)(C)C)C(C)(C)c1ccccc1` (some centres unmarked) [Example MM7] reads more than 1000 nM.
Same read-out and setting: the result for `CN[C@H](C(=O)N[C@H](C(=O)N(C)[C@H](/C=C(\C)C(=O)N[C@H](CC(=O)NCCN1C(=O)CC(SC[C@H](N)C(=O)O)C1=O)C(=O)O)C(C)C)C(C)(C)C)C(C)(C)c1ccccc1` (some centres unmarked) [Example MM9] reads more than 1000 nM; that for `CN[C@H](C(=O)N[C@H](C(=O)N(C)[C@H](/C=C(\C)C(=O)N[C@@H](CC(=O)NCCN1C(=O)CC(SC[C@H](N)C(=O)O)C1=O)C(=O)O)C(C)C)C(C)(C)C)C(C)(C)c1ccccc1` (some centres unmarked) [Example MM10], more than 1000 nM; that for `CN[C@H](C(=O)N[C@H](C(=O)N(C)[C@H](/C=C(\C)C(=O)N[C@H](CC(=O)O)C(=O)NCCN1C(=O)CC(SC[C@H](N)C(=O)O)C1=O)C(C)C)C(C)(C)C)C(C)(C)c1ccccc1` (some centres unmarked) [Example MM13], more than 1000 nM.
Still for that read-out and setting: for `CN[C@H](C(=O)N[C@H](C(=O)N(C)[C@H](/C=C(\C)C(=O)N[C@@H](CC(=O)O)C(=O)NCCN1C(=O)CC(SC[C@H](N)C(=O)O)C1=O)C(C)C)C(C)(C)C)C(C)(C)c1ccccc1` (some centres unmarked) [Example MM14] the value was more than 1000 nM; for `CN[C@H](C(=O)N[C@H](C(=O)N(C)[C@H](/C=C(\C)C(=O)N[C@H](CCC(=O)NCCCN1C(=O)CC(SC[C@H](N)C(=O)O)C1=O)C(=O)O)C(C)C)C(C)(C)C)C(C)(C)c1ccccc1` (some centres unmarked) [Example MM16], 867 nM; for `CN[C@H](C(=O)N[C@H](C(=O)N(C)[C@H](/C=C(\C)C(=O)N[C@@H](CC(=O)NCCN1C(=O)CC(SC[C@H](N)C(=O)O)C1=O)C(=O)O)C(C)C)C(C)(C)C)C(C)(C)c1cn(C)c2ccccc12` (some centres unmarked) [Example MM19], 303 nM.
On to `CN[C@H](C(=O)N[C@H](C(=O)N(C)[C@H](/C=C(\C)C(=O)N[C@H](CC(=O)NCCN1C(=O)CC(SC[C@H](N)C(=O)O)C1=O)C(=O)O)C(C)C)C(C)(C)C)C(C)(C)c1cn(C)c2ccccc12` (some centres unmarked) [Example MM20], for which half-maximal inhibition (IC50) required 337 nM.
On the same count and under the same terms, the result for `CN[C@H](C(=O)N[C@H](C(=O)N(C)[C@H](/C=C(\C)C(=O)N[C@@H](CC(=O)O)C(=O)NCCN1C(=O)CC(SC[C@H](N)C(=O)O)C1=O)C(C)C)C(C)(C)C)C(C)(C)c1cn(C)c2ccccc12` (some centres unmarked) [Example MM21] reads 471 nM; that for `CN[C@H](C(=O)N[C@H](C(=O)N(C)[C@H](/C=C(\C)C(=O)N[C@@H](CCC(=O)O)C(=O)NCCN1C(=O)CC(SC[C@H](N)C(=O)O)C1=O)C(C)C)C(C)(C)C)C(C)(C)c1cn(C)c2ccccc12` (some centres unmarked) [Example MM22], 740 nM; that for `CN[C@H](C(=O)N[C@H](C(=O)N(C)[C@H](/C=C(\C)C(=O)N[C@H](CC(=O)O)C(=O)NCCN1C(=O)CC(SC[C@H](N)C(=O)O)C1=O)C(C)C)C(C)(C)C)C(C)(C)c1cn(C)c2ccccc12` (some centres unmarked) [Example MM24], 521 nM.
Same read-out and setting: for `CN[C@H](C(=O)N[C@H](C(=O)N(C)[C@H](/C=C(\C)C(=O)N[C@H](CCC(=O)O)C(=O)NCCN1C(=O)CC(SC[C@H](N)C(=O)O)C1=O)C(C)C)C(C)(C)C)C(C)(C)c1cn(C)c2ccccc12` (some centres unmarked) [Example MM25] the value was 555 nM; for `CN[C@H](C(=O)N[C@H](C(=O)N(C)[C@H](/C=C(\C)C(=O)N[C@H](CCC(=O)N[C@@H](CCCCNC(=O)CCN1C(=O)CC(SC[C@H](N)C(=O)O)C1=O)C(=O)O)C(=O)O)C(C)C)C(C)(C)C)C(C)(C)c1cn(C)c2ccc(F)cc12` (some centres unmarked) [Example MM26], 384 nM; for `CN[C@H](C(=O)N[C@H](C(=O)N(C)[C@H](/C=C(\C)C(=O)N[C@@H](CCCCNC(=O)CCCN1C(=O)CC(SC[C@H](N)C(=O)O)C1=O)C(=O)O)C(C)C)C(C)(C)C)C(C)(C)c1cn(C)c2ccccc12` (some centres unmarked) [Example MM27], more than 1000 nM.
Compound `C/C(=C\[C@H](C(C)C)N(C)C(=O)[C@@H](NC(=O)[C@H]1CCCCN1C(=O)CCN1C(=O)CC(SC[C@H](N)C(=O)O)C1=O)C(C)(C)C)C(=O)N[C@H](CCC(=O)O)C(=O)O` (some centres unmarked) [Example MM29] had an IC50 of more than 1000 nM.
On the same count and under the same terms, for `CN[C@H](C(=O)N[C@H](C(=O)N(C)[C@H](/C=C(\C)C(=O)N[C@H](CCC(=O)NCCN1C(=O)CC(SC[C@H](N)C(=O)O)C1=O)C(=O)O)C(C)C)C(C)(C)C)C(C)(C)c1cccc(F)c1` (some centres unmarked) [Example MM31] the value was more than 1000 nM.
The same measure, in the same setting: for `CNC(C(=O)N[C@H](C(=O)N(C)[C@H](/C=C(\C)C(=O)N[C@H](CCC(=O)NCCN1C(=O)CC(SC[C@H](N)C(=O)O)C1=O)C(=O)O)C(C)C)C(C)(C)C)C(C)(C)c1ccc(O)cc1` (some centres unmarked) [Example MM33] the value was 36 nM; for `CN[C@H](C(=O)N[C@H](C(=O)N(C)[C@H](/C=C(\C)C(=O)N[C@H](CCC(=O)NCCN1C(=O)CC(SC[C@H](N)C(=O)O)C1=O)C(=O)O)C(C)C)C(C)(C)C)C(C)(C)c1ccc(C(=O)O)cc1` (some centres unmarked) [Example MM35], more than 1000 nM.
The same measure, in the same setting: the result for `CN[C@H](C(=O)N[C@H](C(=O)N(C)[C@H](/C=C(\C)C(=O)N[C@H](CCC(=O)NCCN1C(=O)CC(SC[C@H](N)C(=O)O)C1=O)C(=O)O)C(C)C)C(C)(C)C)C(C)(C)c1cccc(OC)c1` (some centres unmarked) [Example MM36] reads more than 1000 nM.
The compound `CN[C@H](C(=O)N[C@H](C(=O)N(C)[C@H](/C=C(\C)C(=O)N[C@H](CCC(=O)NCCN1C(=O)CC(SC[C@H](N)C(=O)O)C1=O)C(=O)O)C(C)C)C(C)(C)C)C(C)(C)c1cc(C)cc(C)c1` (some centres unmarked) [Example MM37] showed an IC50 of more than 1000 nM.
